In the supplement of paper PMC10307832:

What was measured:
Test in all cases: relative viability (nuclei count vs DMSO), 5 days (fraction); higher = more cells survive
Motesanib + Foretinib = compound: CC1(C)CNc2cc(NC(=O)c3cccnc3NCc3ccncc3)ccc21 [Motesanib] + COc1cc2c(Oc3ccc(NC(=O)C4(C(=O)Nc5ccc(F)cc5)CC4)cc3F)ccnc2cc1OCCCN1CCOCC1 [Foretinib] (partner 0.25 µM)
Outline: (§1)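 Relative viability is defined as nuclei in treated wells over nuclei in vehicle wells. Duplicate plates were run and medians reported. Lung cancer cell lines in 1536-well plates were dosed by pin tool one day after seeding, with one drug or with a fixed anchor-drug dose plus five library-drug doses (not always all listed) in √10 steps, and nuclei were counted after 5 days.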

[1] = compound: C[C@@]1(C(=O)Nc2ccc(F)nc2)CCCN1c1nc(Nc2cc(C3CC3)n[nH]2)c2cccn2n1 + CS(=O)(=O)N1CCN(Cc2cc3nc(-c4cccc5[nH]ncc45)nc(N4CCOCC4)c3s2)CC1 [Pictilisib] (partner 1 µM)
Outline: as §1

Motesanib + Crizotinib = compound: CC1(C)CNc2cc(NC(=O)c3cccnc3NCc3ccncc3)ccc21 [Motesanib] + C[C@@H](Oc1cc(-c2cnn(C3CCNCC3)c2)cnc1N)c1c(Cl)ccc(F)c1Cl [Crizotinib] (partner 1 µM)
Outline: as §1

Motesanib + Linsitinib = compound: CC1(C)CNc2cc(NC(=O)c3cccnc3NCc3ccncc3)ccc21 [Motesanib] + C[C@]1(O)C[C@@H](c2nc(-c3ccc4ccc(-c5ccccc5)nc4c3)c3c(N)nccn32)C1 [Linsitinib] (partner 1 µM)
Outline: as §1

| Cell Line | relative viability (Motesanib + Foretinib; first compound 0.01 µM) | relative viability (Motesanib + Foretinib; first compound 0.03162 µM) | relative viability (Motesanib + Foretinib; first compound 0.1 µM) | relative viability (Motesanib + Foretinib; first compound 0.3162 µM) | relative viability (Motesanib + Foretinib; first compound 1 µM) | relative viability ([1]; first compound 0.04 µM) | relative viability ([1]; first compound 0.1265 µM) | relative viability ([1]; first compound 0.4 µM) | relative viability ([1]; first compound 1.265 µM) | relative viability (Motesanib + Crizotinib; first compound 0.01 µM) | relative viability (Motesanib + Crizotinib; first compound 0.03162 µM) | relative viability (Motesanib + Crizotinib; first compound 0.1 µM) | relative viability (Motesanib + Crizotinib; first compound 0.3162 µM) | relative viability (Motesanib + Crizotinib; first compound 1 µM) | relative viability (Motesanib + Linsitinib; first compound 0.01 µM) | relative viability (Motesanib + Linsitinib; first compound 0.03162 µM) | relative viability (Motesanib + Linsitinib; first compound 0.1 µM) | relative viability (Motesanib + Linsitinib; first compound 0.3162 µM) | relative viability (Motesanib + Linsitinib; first compound 1 µM) |
| --- | --- | --- | --- | --- | --- | --- | --- | --- | --- | --- | --- | --- | --- | --- | --- | --- | --- | --- | --- |
| NCI-H647 | 1.21 | 1.14 | 1.21 | 1.25 | 1.14 | 0.443 | 0.24 | 0.334 | 0.348 | 1 | 1.06 | 1.2 | 1.19 | 0.964 | 1.17 | 1.12 | 1.38 | 1.14 | 1.14 |
| NCI-H2023 | 0.849 | 0.838 | 0.837 | 0.911 | 0.927 | 0.197 | 0.129 | 0.118 | 0.146 | 0.711 | 0.592 | 0.747 | 0.571 | 0.711 | 0.756 | 0.695 | 0.715 | 0.587 | 0.643 |
| NCI-H23 | 0.952 | 0.718 | 0.892 | 1.38 | 0.933 | 0.583 | 0.371 | 0.396 | 0.342 | 0.484 | 0.373 |  | 0.497 | 0.612 | 0.582 | 0.609 |  | 0.56 | 0.527 |
| NCI-H1944 | 0.959 | 0.916 | 0.861 | 0.967 | 0.988 | 0.29 | 0.323 | 0.283 | 0.316 | 1.08 | 1.06 | 1.17 | 1.02 | 1.17 | 1.2 | 1.21 | 1.18 | 1.32 | 1.21 |
| NCI-H520 | 0.857 | 0.79 | 0.922 | 0.851 | 0.948 | 0.317 | 0.298 | 0.284 | 0.361 | 0.665 | 0.792 | 0.697 | 0.662 | 0.725 | 0.86 | 1.02 | 0.911 | 1.18 | 0.923 |
| A549 | 0.88 | 0.942 | 1.02 | 0.944 | 1.03 | 0.283 | 0.292 | 0.172 | 0.148 | 0.741 | 0.663 | 0.746 | 0.754 | 0.777 | 0.532 | 0.633 | 0.571 | 0.624 | 0.773 |
| NCI-H460 | 0.942 | 0.966 | 1 | 1.01 | 1.04 | 0.299 | 0.202 | 0.184 | 0.236 | 0.935 | 0.75 | 0.945 | 0.927 | 0.902 | 0.836 | 0.817 | 0.726 | 0.899 | 0.744 |
| EKVX | 0.744 | 0.902 | 0.743 | 0.82 | 0.921 | 0.354 | 0.328 | 0.33 | 0.409 | 0.988 | 0.889 | 0.916 | 1.09 | 0.898 | 0.939 | 0.98 | 1.06 | 1.12 | 1.07 |
| NCI-H358 | 0.599 | 0.712 | 0.67 | 0.807 | 0.629 | 0.259 | 0.237 | 0.173 | 0.277 | 0.578 | 0.346 | 0.763 | 0.586 | 0.596 | 0.7 | 0.818 | 0.712 | 0.785 | 0.905 |
